Assay results: patent publication US7741280B2, “Multimeric molecules, the preparation method thereof and use of same for the preparation of medicaments” (Centre National de la Recherche Scientifique, priority 2002, dated 2010)
Where a SMILES comes first, the peptide text is derived from it. Where no end group is shown, it is not given here. Side-chain parts run from the residue outwards. [ ]: non-standard residue; d: D form. β3hK = NCCCC[C@H](N)CC(=O)O; Ahx = NCCCCCC(=O)O

Key:
CD40-CD40L interaction [1] = target: T1, CD40-CD40L interaction (Homo sapiens, UniProt P25942); assay: Expression of CD95 induced by CD40L on BL41 cells cultured with 3T6-CD40L fibroblasts (flow cytometry); format: cell-based; conditions: for effect on the expression of CD95 induced by CD40L (in words): BL41 cells in the presence of 3T6-CD40L cells, no concentration stated; for % of inhibition of the expression of CD95 induced by CD40L: BL41 + 3T6-CD40L, 48 hours
T1 construct: they receive a signal via the CD40 molecule, which they express in a constitutive manner; endogenous in cells; host or cells: BL41 Burkitt's lymphoma cells (endogenous CD40), co-cultured with 3T6 fibroblasts transfected with CD40L
T1 sequence (P25942 21-277): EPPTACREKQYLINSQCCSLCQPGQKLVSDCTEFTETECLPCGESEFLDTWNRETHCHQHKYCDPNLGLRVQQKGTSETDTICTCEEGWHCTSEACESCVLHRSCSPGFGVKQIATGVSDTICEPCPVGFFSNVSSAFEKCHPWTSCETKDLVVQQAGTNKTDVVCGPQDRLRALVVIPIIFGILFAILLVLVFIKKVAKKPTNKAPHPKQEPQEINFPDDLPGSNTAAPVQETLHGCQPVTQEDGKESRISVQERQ
Method: Then, the affinity of these ligands for the CD40 molecule is evaluated using a biosensor (BIAcore™). The agonist or antagonist effect of the ligands was tested using two simple biological tests. In the first, the expression of the membranous molecule CD95 by transformed B cells (Burkitt's lymphoma) is studied after activation by the CD40-CD40L interaction (Schattner et al., 1996). In such a model, the CD40L partner is expressed on transfected fibroblasts (3T6-CD40L) (Buelens et al., 1997). The BL41 Burkitt's lymphoma cells are incubated with non-transfected 3T6 fibroblasts (FIGS. 3A and 3C) or with 3T6 fibroblasts transfected by CD40L (FIGS. 3B and 3D). After 48 hours, the expression of CD95 is evaluated by flow cytometry. The expression of CD95 is induced in the presence of CD40L (FIG. 3B). A commercial anti-CD40L antibody inhibits the consequences of the CD40-CD40L interaction (FIG. 3D).
The antagonist effect is evaluated by measurement of the decrease in the expression of CD95 induced by the CD40L in the presence of the different chemical ligands (see Table I). With the help of these tests, the most interesting ligands are chosen to evaluate their activity in vivo and in vitro in more complex models.
The lymphoma B cells express the CD95 molecule when they receive a signal via the CD40 molecule, which they express in a constitutive manner. This signal is generally conveyed by the CD40L (CD154) molecule expressed by another cell. The antagonist ligands inhibit the binding of CD40 on CD40L and thus […] the expression of CD95. The agonist ligands copy the CD40L molecule and induce the expression of CD95 even in the absence of the cell expressing CD40L.
The BL41 Burkitt's lymphoma cells (5.10^5/ml) are cultured in the presence of 3T6 fibroblasts (10^5/ml) transfected (3T6-CD40L) or not transfected with CD40L (3T6), and treated with mitomycin to stop their proliferation. The ligands are added at the start of the culture at the chosen concentration. After culture for 48 hours, expression of the CD95 molecule is measured by flow cytometry. The BL41 cells are distinguished from the fibroblasts using an anti-CD19 antibody (specific marker of the B cells).

[2] = tested on: BL41 Burkitt's lymphoma cells; assay: Inhibition of proliferation of BL41 cells (incorporation of tritiated thymidine); format: cell-based; conditions: 24 hours culture, FIG. 4A, 50 μM to 50 nM
Method: Tritiated thymidine was added at a concentration of 1 μci/well (0.8.10^5 cells/well) for the last 8 hours of culture and the incorporation of tritiated thymidine measured using a gaseous scintillation β counter.
(§1) The second test is based on the property of certain B lymphomas to cease proliferation and enter apoptosis during the bridging of their membranous CD40 molecule (Tong et al., 1999). In this test, the BL41 cells are incubated with ligands CD40 and after 24 hours either the inhibition of proliferation of these cells is measured, by studying the incorporation of tritiated thymidine, or the percentage of apoptotic cells is measured with a flow cytometry study (FIGS. 4A and 4B).
(§2) Certain B lymphomas enter apoptosis when their CD40 molecule is bridged by an anti-CD40 antibody or by CD40L which is soluble independently from the CD95 molecule. This induction of apoptosis is expressed as a decrease in proliferation measured by the incorporation of tritiated thymidine. The agonist ligands of CD40 will induce an increase in apoptosis and as a result a decrease in the incorporation of tritiated thymidine.
The BL41 Burkitt's lymphoma cells (4.10^5/mL) are cultured in the presence of the different ligands at the chosen concentration. After 24 hours, the cells are either incubated for 8 hours with tritiated thymidine (1 μci/well) to measure the proliferation or are labelled with Annexin V-FITC and propidium iodide to evaluate the percentage of apoptotic cells with flow cytometry.

[3] = target: T2, human CD40 muIg fusion protein (UniProt P01863+P25942); assay: Biacore3000 surface plasmon resonance study of the CD40/CD40L interaction and the ligands; format: binding; conditions: in the presence of 100 nM of CD40L
T2 construct: purchased ANCELL Corporation, Bayport, Minn
T2 sequence (P25942+P01863 fused): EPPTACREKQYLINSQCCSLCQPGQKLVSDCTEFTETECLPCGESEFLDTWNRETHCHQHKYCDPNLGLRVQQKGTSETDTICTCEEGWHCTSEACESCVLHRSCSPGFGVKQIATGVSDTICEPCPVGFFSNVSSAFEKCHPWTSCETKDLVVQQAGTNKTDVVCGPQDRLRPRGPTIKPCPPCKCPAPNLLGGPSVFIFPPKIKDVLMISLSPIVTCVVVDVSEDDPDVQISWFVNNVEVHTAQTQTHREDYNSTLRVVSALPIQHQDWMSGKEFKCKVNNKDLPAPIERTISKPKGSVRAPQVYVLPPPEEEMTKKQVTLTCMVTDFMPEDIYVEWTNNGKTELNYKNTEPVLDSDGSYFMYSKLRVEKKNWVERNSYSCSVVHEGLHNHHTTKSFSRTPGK
Text: The Biacore3000 is a device which allows the interactions between two molecules to be studied, based on the surface plasmon resonance. It allows measurement in real time, and therefore allows the kinetics of interaction (association and disassociation) of an analyte (which is in an injected solution) and of a ligand (immobilised on a microchip supporting the measurement) to be monitored. The kinetic measurements at different concentrations of analyte allow calculation of the affinity constants of the interaction between the ligand and the analytes. The microchip contains four cells for different measurements, which allows direct comparison of a reference cell on which a protein which is not pertinent (protein which has no affinity with the ligand studied), but close to the ligand is immobilised with the cell on which the ligand is immobilised.
(§3) Rabbit antibodies directed against the constant region of mouse immunoglobulins were immobilized on a microchip. In the reference cell a monoclonal mouse antibody of isotype IgG2a (LG112) at 40 nM is immobilized with a flow of 5 μL/min for 2 minutes; in the cell of the ligand the recombinant CD40 associated with the constant region of the mouse IgG2a heavy chain (human CD40 muIg fusion protein, ANCELL Corporation, Bayport, Minn.) is immobilized under the same conditions.
On the two cells (reference and ligand), the CD40L (human CD154 muCD8 fusion protein, ANCELL Corporation) at different concentrations or the CD40L at a concentration of 1 μM or of 125 nM, are injected, as analyte, in the presence of different concentrations of ligands. The flow in the presence of the analytes is 10 μL/min for 5 minutes to study the association and, in the absence of analytes, the conditions are the same to study the dissociation.
In order to regenerate the cells (i.e. remove all the proteins adsorbed in a non-covalent manner), a solution of 10 mM of HCl is injected at 5 μL/min for 1 minute. The cells are then ready for another analysis.

[4] = tested on: BL41 Burkitt's lymphoma cells; assay: Apoptosis of BL41 cells (Annexin V-FITC / propidium iodide flow cytometry); format: cell-based; conditions: 24 hours culture, FIG. 4B, 50 to 6 μM
Method: Apoptosis is measured by flow cytometry after labelling with annexin V FITC and propidium iodide. Cells labelled with annexin V alone or with annexin V and propidium iodide are considered apoptotic. The percentage of specific apoptosis is calculated by the following formula: [(% apoptosis with ligand−% apoptosis without ligand)/(100−% apoptosis without ligand)]×100
as §1, §2
The BL41 Burkitt's lymphoma cells (4.10^5/mL) are cultured in the presence of the different ligands at the chosen concentration. […]

CD40-CD40L interaction [5] = target: T1, CD40-CD40L interaction; assay: Expression of CD95 induced by CD40L on BL41 cells cultured with 3T6-CD40L fibroblasts (flow cytometry); format: cell-based; conditions: concentration of 50 μM
[6] = target: T3, human CD40 muIg fusion protein (recombinant CD40 associated with the constant region of the mouse IgG2a heavy … (human; mouse, UniProt P25942 21-193, limits assumed); assay: SPR (Biacore 3000), inhibition of the binding of 100 nM CD40L to captured CD40 muIg
T3 construct: Bought reagent; Captured on the Biacore chip through rabbit anti-mouse immunoglobulin antibodies; not shown: constant region of the mouse IgG2a heavy chain
T3 sequence (P25942 21-193 limits assumed): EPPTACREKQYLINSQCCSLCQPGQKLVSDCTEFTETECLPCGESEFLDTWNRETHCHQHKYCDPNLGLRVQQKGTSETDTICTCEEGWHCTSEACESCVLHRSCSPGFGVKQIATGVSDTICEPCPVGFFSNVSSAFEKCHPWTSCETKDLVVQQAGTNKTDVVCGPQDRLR
Method: as §3, with “µL/min” for “μL/min”
(§4) The flow in the presence of the analytes is 10 µL/min for 5 minutes to study the association and, in the absence of analytes, the conditions are the same to study the dissociation.
(§5) The association of L4, L7 (and of its derivatives), L8, L9 L11 and L12 was studied in the presence of 100 nM of CD40L. Only the L4 and L9 molecules bind to CD40 and displace CD40L. The kinetic analysis in the presence of 40 and 80 nM of L4 produced an equilibrium constant for L4 of 180 nM.

[7] = target: T3, human CD40 muIg fusion protein …; assay: SPR (Biacore 3000), kinetic analysis with 40 and 80 nM L4 in the presence of 100 nM CD40L over captured CD40 muIg
Method: as §3, with “µL/min” for “μL/min”
as §4, §5

[8] = target: T3, human CD40 muIg fusion protein …; assay: SPR (Biacore 3000), kinetic analysis with 2.5 µM L3 in the presence of 125 nM CD40L over captured CD40 muIg
Method: as §3, with “µL/min” for “μL/min”
as §4

## NCCCC[C@H](N)C(=O)NCC(=O)N[C@@H](Cc1ccc(O)cc1)C(=O)N[C@@H](Cc1ccc(O)cc1)C(=O)NCCCCCC(=O)NCCCOCC(COCCCNC(=O)CCCCCNC(=O)[C@H](Cc1ccc(O)cc1)NC(=O)[C@H](Cc1ccc(O)cc1)NC(=O)CNC(=O)[C@@H](N)CCCCN)(COCCCNC(=O)CCCCCNC(=O)[C@H](Cc1ccc(O)cc1)NC(=O)[C@H](Cc1ccc(O)cc1)NC(=O)CNC(=O)[C@@H](N)CCCCN)NC(=O)CCC(N)=O [L7]
CD40-CD40L interaction [1]
  effect on the expression of CD95 induced by CD40L (in words): no effect
CD40-CD40L interaction [1]; ligand 0.5 μM
  % of inhibition of the expression of CD95 induced by CD40L: 0%
CD40-CD40L interaction [1]; ligand 5 μM
  % of inhibition of the expression of CD95 induced by CD40L: 0%
CD40-CD40L interaction [1]; ligand 50 μM
  % of inhibition of the expression of CD95 induced by CD40L: 0%
[2]
  inhibition of the proliferation of BL41 cells (in words): only have a small or no effect
[3]
  binding to CD40 and displacement of CD40L (in words): Only the L4 and L9 molecules bind to CD40

## L11: constituted by the single peptide sequence (KGYY-{Ahx-OH})
[4]
  apoptosis of BL41 cells (in words): no effect
[3]
  binding to CD40 and displacement of CD40L (in words): Only the L4 and L9 molecules bind to CD40

## C[C@H]1NC(=O)[C@H](CCCCNC(=O)CCCCCNC(=O)[C@H](Cc2ccc(O)cc2)NC(=O)[C@H](Cc2ccc(O)cc2)NC(=O)CNC(=O)[C@@H](N)CCCCN)NC(=O)[C@@H](C)NC(=O)[C@H](CCCCNC(=O)CCCCCNC(=O)[C@H](Cc2ccc(O)cc2)NC(=O)[C@H](Cc2ccc(O)cc2)NC(=O)CNC(=O)[C@@H](N)CCCCN)NC(=O)[C@@H](C)NC(=O)[C@H](CCCCNC(=O)CCCCCNC(=O)[C@H](Cc2ccc(O)cc2)NC(=O)[C@H](Cc2ccc(O)cc2)NC(=O)CNC(=O)[C@@H](N)CCCCN)NC1=O [L4] (cyclo(K([Ahx-Tyr-Tyr-Gly-Lys])[dA]K([Ahx-Tyr-Tyr-Gly-Lys])[dA]K([Ahx-Tyr-Tyr-Gly-Lys])[dA]))
CD40-CD40L interaction [1]; ligand 0.5 μM
  % of inhibition of the expression of CD95 induced by CD40L: 19%
CD40-CD40L interaction [1]; ligand 5 μM
  % of inhibition of the expression of CD95 induced by CD40L: 36%
CD40-CD40L interaction [1]; ligand 10 μM
  % of inhibition of the expression of CD95 induced by CD40L: 40%
CD40-CD40L interaction [1]; ligand 50 μM
  % of inhibition of the expression of CD95 induced by CD40L: 22%
CD40-CD40L interaction [5]
  cell mortality: substantial cell mortality

## L4a: same core molecule as L4 but only 2 examples of the peptide sequence (chain [dA]K[dA]K[dA]K; peptide H-KGYY[Ahx]; also: two copies of chain 2 linked via Ahx to two Lys ε-amines of chain 1, which Lys not given here, head-to-tail to a chain's N/C-terminus)
CD40-CD40L interaction [1]
  effect on the expression of CD95 induced by CD40L (in words): only very weakly inhibits
CD40-CD40L interaction [1]; ligand 0.5 μM
  % of inhibition of the expression of CD95 induced by CD40L: 0%
CD40-CD40L interaction [1]; ligand 5 μM
  % of inhibition of the expression of CD95 induced by CD40L: 8%
CD40-CD40L interaction [1]; ligand 50 μM
  % of inhibition of the expression of CD95 induced by CD40L: 13%
[4]
  apoptosis of BL41 cells (in words): very weak apoptosis

B1: Compound L9 (ligand L9): cyclic core structure different from that of L4 with 3 examples of the same peptide sequence (peptide)
chain: [β3hK]-[β3hK]-[β3hK]
peptide: H-KGYY[Ahx]
modifications: also: three H-KGYY-Ahx- arms, one on each side-chain amine of the core, head-to-tail to a chain's N/C-terminus
[6]
  IC50: < 50 nM

B2: Compound L4 (ligand L4): cyclic core structure with 3 examples of the peptide sequence mimicking the CD40-CD40L interface (peptide)
chain: [dA]K[dA]K[dA]K
peptide: H-KGYY[Ahx]
modifications: also: three H-KGYY-Ahx- arms, one on the epsilon-amine of each core Lys, head-to-tail to a chain's N/C-terminus
[6]
  IC50: 80 nM
[7]
  Kd: 180 nM

B3: Compound L3 (ligand L3) (peptide)
chain: KKKKA
peptide: KGYY
modifications: also: core Lys joined through epsilon-amines (isopeptide bonds), KGYY arms on free amines of core Lys, Tyr C-terminus amide-linked directly to core amine, no spacer
notes: also called linear ligand
[8]
  Kd: 10000 nM

B4: soluble CD40L: soluble CD40L molecule used as positive control on BL41 cells (protein)
chain: MQKGDQNPQIAAHVISEASSKTTSVLQWAEKGYYTMSNNLVTLENGKQLTVKRQGLYYIYAQVTFCSNREASSQAPFIASLCLKSPGRFERILLRAANTHSSAKPCGQQSIHLGGVFELQPGASVFVNVTDPSQVSHGTGFTSFGLLKL
[2]
  inhibition of the proliferation of BL41 cells (in words): greatly inhibits
